Reference: patent publication US7268161B2, “Comprehensive pharmacologic therapy for treatment of obesity including cysteine” (priority 1999, dated 2007)

Legend:
tachyphylaxis = test: Cysteine therapy in patients with tachyphylaxis from drugs that increase synaptic norepinephrine; assay type: in vivo; conditions: patients on drugs which cause increased levels of norepinephrine in the synapse
Text: The core of Tyrosine Hydroxylase is a “heme-thiolate” protein (see FIG. 1). The “heme-thiolate” protein is composed of iron in the form of a cytochrome P-450 complex and Cysteine. Patients experiencing tachyphylaxis from drugs which cause increased levels of norepinephrine in the synapse, generally have serum iron levels which are normal.

norepinephrine = conditions: drugs used in treatment of a patient for weight loss; cited from earlier work

| SMILES | reversal of tachyphylaxis (tachyphylaxis) | increase of intersynaptic levels of norepinephrine (norepinephrine) |
| --- | --- | --- |
| N[C@@H](CS)C(=O)O [Cysteine] | effective in reversing the tachyphylaxis |  |
| CC(C)(N)Cc1ccccc1 [Phentermine] |  | ≥ 2,500 times |
